According to US20110190235A1, “BORON-CONTAINING SMALL MOLECULES AS ANTIPROTOZOAL AGENTS” (Anacor Pharmaceuticals, Inc., priority 2009, published 2011):
Values after ≈ are worked out from the molar mass of the structure shown. Read-outs that look alike come from different tables or passages of the source.

Tests used:
[1] = L929 cytotoxicity evaluation (resazurin); format: cell-based; conditions: mouse, L929 mouse fibroblast cells; 72 hrs incubation; read-out: Cytotox L-929 IC50
Protocol: For evaluation of compound effects on mammalian cells, L929 mouse fibroblast cells were used. Cells were maintained as adherent cultures in T-25 vented cap flasks in a humidified incubator at 37° C. in the presence of 5% CO2. Culture media was D-MEM supplemented with 10% fetal bovine serum and 1% penicillin/streptomycin. L929 cells were maintained below confluent levels by sub-culturing at 1:10 dilution twice weekly using 0.05% trypsin for detachment.
Sub-confluent L929 cells were trypsinized, resuspended in fresh media and 10 uL was counted using hemocytometer to determine cell concentration. Cells were diluted to 1×10^4/mL in DMEM, dispensed (100 uL) into 96-well plates using a Multidrop 384 dispenser and allowed to attach overnight. Spent media was replaced with 99.5 uL fresh D-MEM and compounds to be tested were serially diluted in DMSO and 0.5 uL added using a Biomek NX liquid handler. Plates were incubated with compounds for 72 hrs at 37° C. with 5% CO2. Resazurin (20 uL of 12.5 mg/ml stock) from Sigma-Aldrich was added to each well and plates were incubated for an additional 3-4 hrs. Assay plates were read using an EnVision plate reader at an excitation wavelength of 544 nm and emission of 590 nm. Single data points were used to generate sigmoidal dose response curves and determine IC50 values using XLfit curve fitting software from IDBS (Guildford, UK).

[2] = system: bloodstream-form trypanosome T. brucei brucei 427 strain; assay: Trypanosoma brucei brucei high-throughput in vitro drug sensitivity assay (resazurin); format: cell-based; conditions: for IC50: Trypanosoma brucei; for Selectivity Index (L929 IC50 / T. b. brucei IC50): T. b. brucei vs L929
[3] = 72 hrs incubation, read-out: T.b. brucei IC50
[4] = 72 hrs incubation, read-out: T. b. brucei IC50

## CC1(C)OB(O)c2cc(NC(=O)c3cnccn3)ccc21 [compound 119, Pyrazine-2-carboxylic acid (1-hydroxy-3,3-dimethyl-1,3-dihydro-benzo[c][1,2]oxaborol-6-yl)-amide]
[1]
  IC50 at 72 h: > 10 µg/mL
[2]; [3]
  IC50: > 5 µg/mL

## CC1(C)OB(O)c2cc(NC(=O)c3cc(F)ccc3C(F)(F)F)ccc21 [compound 88, 5-Fluoro-N-(1-hydroxy-3,3-dimethyl-1,3-dihydro-benzo[c][1,2]oxaborol-6-yl)-2-trifluoromethyl-benzamide]
[1]
  IC50 at 72 h: > 10 µg/mL
[2]; [3]
  IC50: 0.313 µg/mL

## COC(=O)c1ccc(C(=O)Nc2ccc3c(c2)B(O)OC3(C)C)cc1 [compound 58, N-(1-Hydroxy-3,3-dimethyl-1,3-dihydro-benzo[c][1,2]oxaborol-6-yl)-terephthalamic acid methyl ester]
[1]
  IC50 at 72 h: > 10 µg/mL
[2]; [3]
  IC50: 1.11 µg/mL

## CC1(C)OB(O)c2cc(NC(=O)c3cccs3)ccc21 [compound 124, Thiophene-2-carboxylic acid (1-hydroxy-3,3-dimethyl-1,3-dihydro-benzo[c][1,2]oxaborol-6-yl)-amide]
[1]
  IC50 at 72 h: > 10 µg/mL
[2]; [3]
  IC50: 2.7 µg/mL

## CCC(C)(C)C(=O)Nc1ccc2c(c1)B(O)OC2(C)C [compound 132, N-(1-Hydroxy-3,3-dimethyl-1,3-dihydro-benzo[c][1,2]oxaborol-6-yl)-2,2-dimethyl-butyramide]
[1]
  IC50 at 72 h: > 10 µg/mL
[2]; [3]
  IC50: 3.81 µg/mL

## CC1(C)OB(O)c2cc(NC(=O)c3ccc(N4CCOCC4)cc3)ccc21 [compound 61, N-(1-Hydroxy-3,3-dimethyl-1,3-dihydro-benzo[c][1,2]oxaborol-6-yl)-4-morpholin-4-yl-benzamide]
[1]
  IC50 at 72 h: > 10 µg/mL
[2]; [3]
  IC50: 1.6 µg/mL

## CC1(C)OB(O)c2cc(NC(=O)c3ccoc3)ccc21 [compound 120, Furan-3-carboxylic acid (1-hydroxy-3,3-dimethyl-1,3-dihydro-benzo[c][1,2]oxaborol-6-yl)-amide]
[1]
  IC50 at 72 h: > 10 µg/mL
[2]; [3]
  IC50: > 5 µg/mL

## CC1(C)OB(O)c2cc(NC(=O)c3ccc(C(F)(F)F)cc3C(F)(F)F)ccc21 [compound 79, N-(1-Hydroxy-3,3-dimethyl-1,3-dihydro-benzo[c][1,2]oxaborol-6-yl)-2,4-bis-trifluoromethyl-benzamide]
[1]
  IC50 at 72 h: > 10 µg/mL
[2]; [3]
  IC50: 1.1 µg/mL

## CCc1ccc(C(=O)Nc2ccc3c(c2)B(O)OC3(C)C)cc1 [compound 30, 4-Ethyl-N-(1-hydroxy-3,3-dimethyl-1,3-dihydro-benzo[c][1,2]oxaborol-6-yl)-benzamide]
[1]
  IC50 at 72 h: > 10 µg/mL
[2]; [3]
  IC50: 0.427 µg/mL

## CC1(C)OB(O)c2cc(NC(=O)C3CCCC3)ccc21 [compound 128, Cyclopentanecarboxylic acid (1-hydroxy-3,3-dimethyl-1,3-dihydro-benzo[c][1,2]oxaborol-6-yl)-amide]
[1]
  IC50 at 72 h: > 10 µg/mL
[2]; [3]
  IC50: > 5 µg/mL

## C=CCc1ccc(C(=O)Nc2ccc3c(c2)B(O)OC3(C)C)c(Cl)c1 [compound 98, 4-Allyl-2-chloro-N-(1-hydroxy-3,3-dimethyl-1,3-dihydro-benzo[c][1,2]oxaborol-6-yl)-benzamide]
[1]
  IC50 at 72 h: > 10 µg/mL
[2]; [3]
  IC50: 0.091 µg/mL

## O=C(Nc1ccc2c(c1)B(O)OC21CCCC1)c1ccccc1Cl [compound 137, 2-Chloro-N-(1-hydroxy-3,3-spirocyclopentyl′-1,3-dihydro-benzo[c][1,2]oxaborol-6-yl)-benzamide]
[1]
  IC50 at 72 h: > 10 µg/mL
[2]
  Selectivity Index (L929 IC50 / T. b. brucei IC50): >3
[2]; [4]
  IC50: 10.6 µM
[2]; [3]
  IC50: 3.62 µg/mL

## CC1(C)OB(O)c2cc(NC(=O)c3ccc(Cl)cc3)ccc21 [compound 45, 4-Chloro-N-(1-hydroxy-3,3-dimethyl-1,3-dihydro-benzo[c][1,2]oxaborol-6-yl)-benzamide]
[1]
  IC50 at 72 h: > 10 µg/mL
[2]; [3]
  IC50: 3.64 µg/mL

## COc1ccc(C(=O)Nc2ccc3c(c2)B(O)OC3(C)C)cc1C [compound 95, N-(1-Hydroxy-3,3-dimethyl-1,3-dihydro-benzo[c][1,2]oxaborol-6-yl)-4-methoxy-3-methyl-benzamide]
[1]
  IC50 at 72 h: > 10 µg/mL
[2]; [3]
  IC50: 0.86 µg/mL

## CC1(C)OB(O)c2cc(NC(=O)c3ccc([N+](=O)[O-])cc3Cl)ccc21 [compound 93]
[1]
  IC50 at 72 h: > 10 µg/mL
[2]; [3]
  IC50: 0.197 µg/mL

## Cc1occc1C(=O)Nc1ccc2c(c1)B(O)OC2(C)C [compound 121, 2-Methyl-furan-3-carboxylic acid (1-hydroxy-3,3-dimethyl-1,3-dihydro-benzo[c][1,2]oxaborol-6-yl)-amide]
[1]
  IC50 at 72 h: > 10 µg/mL
[2]; [3]
  IC50: 3.2 µg/mL

## CC1(C)OB(O)c2cc(NC(=O)c3cccc(C(F)(F)F)c3)ccc21 [compound 35, N-(1-Hydroxy-3,3-dimethyl-1,3-dihydro-benzo[c][1,2]oxaborol-6-yl)-3-trifluoromethyl-benzamide]
[1]
  IC50 at 72 h: > 10 µg/mL
[2]; [3]
  IC50: 2.74 µg/mL

## CC1(C)OB(O)c2cc(NC(=O)c3cc(Cl)ccc3F)ccc21 [compound 72, 5-Chloro-2-fluoro-N-(1-hydroxy-3,3-dimethyl-1,3-dihydro-benzo[c][1,2]oxaborol-6-yl)-benzamide]
[1]
  IC50 at 72 h: > 10 µg/mL
[2]; [3]
  IC50: 0.407 µg/mL

## COc1ccc(C(=O)Nc2ccc3c(c2)B(O)OC3(C)C)c(OC)c1 [compound 94]
[1]
  IC50 at 72 h: > 10 µg/mL
[2]; [3]
  IC50: 0.4 µg/mL

## CC1(C)OB(O)c2cc(NC(=O)c3cccc(Cl)c3)ccc21 [compound 42, 3-Chloro-N-(1-hydroxy-3,3-dimethyl-1,3-dihydro-benzo[c][1,2]oxaborol-6-yl)-benzamide]
[1]
  IC50 at 72 h: > 10 µg/mL
[2]; [3]
  IC50: 2.12 µg/mL

## C=Cc1ccc(C(=O)Nc2ccc3c(c2)B(O)OC3(C)C)c(Cl)c1 [compound 97, 2-Chloro-N-(1-hydroxy-3,3-dimethyl-1,3-dihydro-benzo[c][1,2]oxaborol-6-yl)-4-vinyl-benzamide]
[1]
  IC50 at 72 h: > 10 µg/mL
[2]; 72 h, read-out: T.b. brucei IC50 (ug/mL)
  IC50: 0.05 µg/mL

## CC1(C)OB(O)c2cc(NC(=O)c3ccc(Cl)cc3Br)ccc21 [compound 75, 2-Bromo-4-chloro-N-(1-hydroxy-3,3-dimethyl-1,3-dihydro-benzo[c][1,2]oxaborol-6-yl)-benzamide]
[1]
  IC50 at 72 h: > 10 µg/mL
[2]; [3]
  IC50: 0.405 µg/mL

## O=C(Nc1ccc2c(c1)B(O)OC21CC1)c1ccc(F)cc1C(F)(F)F [compound 133]
[1]
  IC50 at 72 h: > 10 µg/mL
[2]
  Selectivity Index (L929 IC50 / T. b. brucei IC50): 100
[2]; [3]
  IC50: 0.191 µg/mL

## CC1(C)OB(O)c2cc(NC(=O)c3c(C(F)(F)F)ccc(Cl)c3F)ccc21 [compound 109, 3-Chloro-2-fluoro-N-(1-hydroxy-3,3-dimethyl-1,3-dihydro-benzo[c][1,2]oxaborol-6-yl)-6-trifluoromethyl-benzamide]
[1]
  IC50 at 72 h: > 10 µg/mL
[2]; [3]
  IC50: 0.379 µg/mL

## CC1(C)OB(O)c2cc(NC(=O)c3ccc(C(F)(F)F)cc3F)ccc21 [compound 84, 2-Fluoro-N-(1-hydroxy-3,3-dimethyl-1,3-dihydro-benzo[c][1,2]oxaborol-6-yl)-4-trifluoromethyl-benzamide]
[1]
  IC50 at 72 h: > 10 µg/mL
[2]; [3]
  IC50: 0.533 µg/mL

## CC1(C)OB(O)c2cc(NC(=O)c3cccc(C(F)(F)F)c3F)ccc21 [compound 83, 2-Fluoro-N-(1-hydroxy-3,3-dimethyl-1,3-dihydro-benzo[c][1,2]oxaborol-6-yl)-3-trifluoromethyl-benzamide]
[1]
  IC50 at 72 h: > 10 µg/mL
[2]; [3]
  IC50: 0.543 µg/mL

## COc1cccc(C(=O)Nc2ccc3c(c2)B(O)OC3(C)C)c1 [compound 47, N-(1-Hydroxy-3,3-dimethyl-1,3-dihydro-benzo[c][1,2]oxaborol-6-yl)-3-methoxy-benzamide]
[1]
  IC50 at 72 h: > 10 µg/mL
[2]; [3]
  IC50: 2.35 µg/mL

## CC(C)CC1OB(O)c2cc(NC(=O)c3ccc(F)cc3)ccc21 (stereo not shown) [compound 24, 4-Fluoro-N-(1-hydroxy-3-isobutyl-1,3-dihydro-benzo[c][1,2]oxaborol-6-yl)-benzamide]
[1]
  IC50 at 72 h: > 10 µg/mL
[2]; [4]
  IC50: > 15.3 µM
[2]; [3]
  IC50: > 5 µg/mL

## CC1(C)OB(O)c2cc(NC(=O)c3ccc([N+](=O)[O-])cc3)ccc21 [compound 56, N-(1-Hydroxy-3,3-dimethyl-1,3-dihydro-benzo[c][1,2]oxaborol-6-yl)-4-nitro-benzamide]
[1]
  IC50 at 72 h: > 10 µg/mL
[2]; [3]
  IC50: > 5 µg/mL

## CC(=O)Nc1ccc2c(c1)B(O)OC2(C)C [compound 130, N-(1-Hydroxy-3,3-dimethyl-1,3-dihydro-benzo[c][1,2]oxaborol-6-yl)-acetamide]
[1]
  IC50 at 72 h: > 10 µg/mL
[2]; [3]
  IC50: > 5 µg/mL

## CC1(C)OB(O)c2cc(NC(=O)c3c(F)cccc3F)ccc21 [compound 64, 2,6-Difluoro-N-(1-hydroxy-3,3-dimethyl-1,3-dihydro-benzo[c][1,2]oxaborol-6-yl)-benzamide]
[1]
  IC50 at 72 h: > 10 µg/mL
[2]; [3]
  IC50: 0.724 µg/mL

## CC(=O)Nc1ccc2c(c1)B(O)OC2C1CCCC1 (stereo not shown) [compound 21, N-(3-Cyclopentyl-1-hydroxy-1,3-dihydro-benzo[c][1,2]oxaborol-6-yl)-acetamide]
[1]
  IC50 at 72 h: > 10 µg/mL
[2]; [4]
  IC50: > 19.3 µM
[2]; [3]
  IC50: > 5 µg/mL

## O=C(Nc1ccc2c(c1)B(O)OC2C1CCCC1)c1ccccc1Cl (stereo not shown) [compound 18, 2-Chloro-N-(3-cyclopentyl-1-hydroxy-1,3-dihydro-benzo[c][1,2]oxaborol-6-yl)-benzamide]
[1]
  IC50 at 72 h: 9.29 µg/mL (≈ 26.1 µM)
[2]
  Selectivity Index (L929 IC50 / T. b. brucei IC50): 2
[2]; [4]
  IC50: 11.9 µM
[2]; [3]
  IC50: 4.22 µg/mL
